Consider 4 compounds from patent US12077503B2, “Substituted cyclic amides and their use as herbicides” (FMC CORPORATION, priority 2015, dated 2024).

What all share (format): in vivo
Assay [1] has as its system ivy-leaved morning glory (Ipomoea hederacea). Nature of the assay: Test G Pre-Emergence Protocol. Particulars: Ipomoea, pre-emergence, 312 h, evaluated after 13 days; for pest or weed control at 15.625 g/ha: 15.625 g ai/ha, read-out: Morning-glory, Ivy-leaved damage rating (100=total damage to plant; 0=no damage to plant); for pest or weed control at 62.5 g/ha: 62.5 g ai/ha, 100=total damage to plant, 0=no damage to plant, read-out: plant damage rating, Morningglory, Ivy-leaved; for pest or weed control at 250 g/ha: 250 g ai/ha, read-out: Morningglory, Ivy-leaved damage rating (100=total damage to plant; 0=no damage to plant). Here is the method:
(§1) Seeds of corn (Zea mays), giant foxtail (Setaria faberi), barnyardgrass (Echinochloa crus-galli), ivy-leaved morning glory (Ipomoea hederacea), redroot pigweed (Amaranthus retroflexus) and velvetleaf (Abutilon theophrasti) were sown in standard soil in pots. After cultivation for one day under controlled conditions in a glasshouse (at 24/16° C., day/night; 14 hours light; 65% humidity), the plants were sprayed with an aqueous spray solution derived from the formulation of the technical active ingredient in acetone/water (50:50) solution containing 0.5% Tween 20 (polyoxyethylene sorbitan monolaurate, CAS RN 9005-64-5) to give a final dose of 15.625, 62.5 or 250 g/ha of test compound.
(§2) The test plants were then grown on under controlled conditions in a glasshouse (at 24/16° C., day/night; 14 hours light; 65% humidity) and watered twice daily. After 13 days the test was evaluated (100=total damage to plant; 0=no damage to plant). A dash (-) means no test result.

For assay [2], the system named is giant foxtail (Setaria faberi). Nature of the assay: Test G Pre-Emergence Protocol. Particulars: Setaria faberi, pre-emergence, 312 h, evaluated after 13 days; for pest or weed control at 15.625 g/ha: 15.625 g ai/ha; for pest or weed control at 15.625 g/ha / pest or weed control at 250 g/ha: read-out: Foxtail, Giant damage rating (100=total damage to plant; 0=no damage to plant); for pest or weed control at 62.5 g/ha: 62.5 g ai/ha, 100=total damage to plant, 0=no damage to plant, read-out: plant damage rating, Foxtail, Giant; for pest or weed control at 250 g/ha: 250 g ai/ha. On the procedure: as §1, §2

In assay [3] the test system is barnyardgrass (Echinochloa crus-galli). As to the kind of experiment: Test G Pre-Emergence Protocol. Particulars: Echinochloa crus-galli, pre-emergence, 312 h, evaluated after 13 days; for pest or weed control at 15.625 g/ha: 15.625 g ai/ha, read-out: Barnyard grass damage rating (100=total damage to plant; 0=no damage to plant); for pest or weed control at 62.5 g/ha: 62.5 g ai/ha, 100=total damage to plant, 0=no damage to plant, read-out: plant damage rating, Barnyardgrass; for pest or weed control at 250 g/ha: 250 g ai/ha, read-out: Barnyardgrass damage rating (100=total damage to plant; 0=no damage to plant). Here is the method:
as §1, §2

Assay [4] has as its system velvetleaf (Abutilon theophrasti). Nature of the assay: Test G Pre-Emergence Protocol. Particulars: Abutilon theophrasti, pre-emergence, 312 h, evaluated after 13 days; for pest or weed control at 15.625 g/ha: 15.625 g ai/ha; for pest or weed control at 15.625 g/ha / pest or weed control at 250 g/ha: read-out: Velvetleaf damage rating (100=total damage to plant; 0=no damage to plant); for pest or weed control at 62.5 g/ha: 62.5 g ai/ha, 100=total damage to plant, 0=no damage to plant, read-out: plant damage rating, Velvetleaf; for pest or weed control at 250 g/ha: 250 g ai/ha. Here is the method: as §1, §2

For assay [5], the system named is corn (Zea mays). As to the kind of experiment: Test G Pre-Emergence Protocol. Particulars: Zea mays, pre-emergence, 312 h, evaluated after 13 days; for plant injury at 15.625 g/ha: 15.625 g ai/ha; for plant injury at 15.625 g/ha / plant injury at 250 g/ha: read-out: Corn damage rating (100=total damage to plant; 0=no damage to plant); for plant injury at 62.5 g/ha: 62.5 g ai/ha, 100=total damage to plant, 0=no damage to plant, read-out: plant damage rating, Corn; for plant injury at 250 g/ha: 250 g ai/ha. Here is the method:
as §1, §2

Assay [6] relates to redroot pigweed (Amaranthus retroflexus). As to the kind of experiment: Test G Pre-Emergence Protocol. The note with it: Amaranthus retroflexus, pre-emergence, 312 h, evaluated after 13 days; for pest or weed control at 15.625 g/ha: 15.625 g ai/ha; for pest or weed control at 15.625 g/ha / pest or weed control at 250 g/ha: read-out: Pigweed, Redroot damage rating (100=total damage to plant; 0=no damage to plant); for pest or weed control at 62.5 g/ha: 62.5 g ai/ha, 100=total damage to plant, 0=no damage to plant, read-out: plant damage rating, Pigweed, Redroot; for pest or weed control at 250 g/ha: 250 g ai/ha. On the procedure:
as §1, §2

The test system of assay [7] is transplanted rice seedlings (Oryza sativa cv. ‘Japonica—M202’). As to the kind of experiment: Test F flooded paddy test. Set-up: key: 0 = no effect, 100 = complete control. The note with it: Flood.
For assay [8], the system named is bearded sprangletop (Leptochloa fascicularis). As to the kind of experiment: Test F flooded paddy test. Set-up: key: 0 = no effect, 100 = complete control. The note with it: Flood.
Assay [9] deals with rice flatsedge (Cyperus iria). As to the kind of experiment: Test F flooded paddy test. Set-up: key: 0 = no effect, 100 = complete control. The note with it: Flood.
The subject of assay [10] is late watergrass (Echinochloa oryzicola). As to the kind of experiment: Test F flooded paddy test. The note with it: Flood. Set-up: key: 0 = no effect, 100 = complete control.
Assay [11] deals with sedge, umbrella (small-flower umbrella sedge, Cyperus difformis). As to the kind of experiment: Test F flooded paddy test. Particulars: Flood. More on the design: key: 0 = no effect, 100 = complete control.
For assay [12], the system named is barnyardgrass (Echinochloa crus-galli). As to the kind of experiment: Test F flooded paddy test. The note with it: Flood. Set-up: key: 0 = no effect, 100 = complete control.

Take `CN1C[C@H](c2ccc(Cl)cc2)[C@@H](C(=O)Nc2cccc(F)n2)C1=O` [Compound 1399]: in [1], the pest or weed control at 15.625 g/ha was 0%, the pest or weed control at 62.5 g/ha was determined as 50% and the pest or weed control at 250 g/ha was 60%. In addition, in assay [2], the pest or weed control at 15.625 g/ha stood at 90%, the pest or weed control at 62.5 g/ha was 90% and the pest or weed control at 250 g/ha is 90%. Moreover, in [3], the pest or weed control at 15.625 g/ha was found to be 0%, the pest or weed control at 62.5 g/ha worked out at 90% and the pest or weed control at 250 g/ha is 90%. Besides, in assay [4], the pest or weed control at 15.625 g/ha turned out to be 0%, the pest or weed control at 62.5 g/ha turned out to be 40% and the pest or weed control at 250 g/ha came out at 70%. Moreover, in [5], the plant injury at 15.625 g/ha is 0%, the plant injury at 62.5 g/ha is 10% and the plant injury at 250 g/ha is 60%. Besides, in [6], the pest or weed control at 15.625 g/ha came out at 0%, the pest or weed control at 62.5 g/ha came out at 30% and the pest or weed control at 250 g/ha was determined as 80%.

For `CN1CC(c2cccc(OC(F)F)c2)C(C(=O)Nc2ccc(F)cc2F)C1=O` (stereo not drawn) [Compound 617], the “Plant response rating: Rice, Transplanted” value in assay [7] (32 g ai/ha), in assay [7] (64 g ai/ha), in [7] (125 g ai/ha) and in assay [7] (250 g ai/ha) was 0 in each case. The “Plant response rating: Sprangletop, Brdd.” value worked out at 0 in [8] (32 g ai/ha), 80 in assay [8] (64 g ai/ha), 85 in assay [8] (125 g ai/ha) and 90 in assay [8] (250 g ai/ha). The “Plant response rating: Flatsedge, Rice” value in [9] (32 g ai/ha), in [9] (64 g ai/ha), in assay [9] (125 g ai/ha) and in assay [9] (250 g ai/ha) was 0 each time. Further, the “Plant response rating: Watergrass, Late” value in assay [10] (32 g ai/ha), in [10] (64 g ai/ha), in assay [10] (125 g ai/ha) and in [10] (250 g ai/ha) was 100 each time. Besides, the “Plant response rating: Sedge, Umbrella” value in [11] (32 g ai/ha), in [11] (64 g ai/ha), in [11] (125 g ai/ha) and in assay [11] (250 g ai/ha) was 0 throughout. For the same compound, the “Plant response rating: Barnyardgrass” value in assay [12] (32 g ai/ha) was determined as 60; in assay [12] (64 g ai/ha), 85; in assay [12] (125 g ai/ha) it was 100; in [12] (250 g ai/ha), 100.

As for `Cc1ccc(C2CN(C)C(=O)C2C(=O)Nc2ccccc2F)cc1F` (stereo not drawn) [Compound 465], the “Plant response rating: Rice, Transplanted” value in assay [7] (32 g ai/ha) was determined as 0; in assay [7] (64 g ai/ha) it was 0; in assay [7] (125 g ai/ha), 0; in assay [7] (250 g ai/ha) it was 15. Besides, the “Plant response rating: Sprangletop, Brdd.” value in assay [8] (32 g ai/ha) is given as 85; in [8] (64 g ai/ha), 85; in [8] (125 g ai/ha), 95; in assay [8] (250 g ai/ha), 95. In addition, the “Plant response rating: Flatsedge, Rice” value in assay [9] (32 g ai/ha), in assay [9] (64 g ai/ha), in assay [9] (125 g ai/ha) and in [9] (250 g ai/ha) was 0 throughout. For the same compound, the “Plant response rating: Watergrass, Late” value in assay [10] (32 g ai/ha) amounted to 85; in assay [10] (64 g ai/ha), 00; in assay [10] (125 g ai/ha) it was 100; in assay [10] (250 g ai/ha) it was 100. Further, the “Plant response rating: Sedge, Umbrella” value in assay [11] (32 g ai/ha), in assay [11] (64 g ai/ha), in assay [11] (125 g ai/ha) and in [11] (250 g ai/ha) was 0 in each case. The “Plant response rating: Barnyardgrass” value in [12] (32 g ai/ha), in [12] (64 g ai/ha), in assay [12] (125 g ai/ha) and in [12] (250 g ai/ha) was 100 throughout.

`CN1C[C@H](c2ccc(C(F)(F)F)cc2)[C@@H](C(=O)Nc2cccnc2F)C1=O` [Compound 1396]: the pest or weed control at 15.625 g/ha in assay [1] turned out to be 0%; in [2], 90%; in assay [3], 80%; in assay [4], 40%; in [6], 80%. Moreover, the pest or weed control at 62.5 g/ha in [1] came out at 70%; in [2], 90%; in assay [3], 90%; in [4], 70%; in assay [6], 80%. Also, the pest or weed control at 250 g/ha stood at 70% in assay [1]; 100% in assay [2]; 90% in assay [3]; 80% in assay [4]; 80% in assay [6]. Moreover, the plant injury at 15.625 g/ha in assay [5] amounted to 70%. Moreover, the plant injury at 62.5 g/ha in [5] came out at 80%. Moreover, in [5], the plant injury at 250 g/ha worked out at 80%.
